Values belong to the compound of their own block, whether it stands above or below them.
Key:
TRPM5 [1] = molecular target: T1, TRPM5 (Homo sapiens, UniProt Q9NZQ8); assay: Combined patch-clamp and fura-2 recordings of TRPM5 currents after Ca2+ release, [Ca2+]i not buffered; assay type: cell-based
T1 construct: Human TRPM5 cDNA containing the complete ORF of the long splice version; expressed in transfected cells
T1 sequence (Q9NZQ8 1-1165): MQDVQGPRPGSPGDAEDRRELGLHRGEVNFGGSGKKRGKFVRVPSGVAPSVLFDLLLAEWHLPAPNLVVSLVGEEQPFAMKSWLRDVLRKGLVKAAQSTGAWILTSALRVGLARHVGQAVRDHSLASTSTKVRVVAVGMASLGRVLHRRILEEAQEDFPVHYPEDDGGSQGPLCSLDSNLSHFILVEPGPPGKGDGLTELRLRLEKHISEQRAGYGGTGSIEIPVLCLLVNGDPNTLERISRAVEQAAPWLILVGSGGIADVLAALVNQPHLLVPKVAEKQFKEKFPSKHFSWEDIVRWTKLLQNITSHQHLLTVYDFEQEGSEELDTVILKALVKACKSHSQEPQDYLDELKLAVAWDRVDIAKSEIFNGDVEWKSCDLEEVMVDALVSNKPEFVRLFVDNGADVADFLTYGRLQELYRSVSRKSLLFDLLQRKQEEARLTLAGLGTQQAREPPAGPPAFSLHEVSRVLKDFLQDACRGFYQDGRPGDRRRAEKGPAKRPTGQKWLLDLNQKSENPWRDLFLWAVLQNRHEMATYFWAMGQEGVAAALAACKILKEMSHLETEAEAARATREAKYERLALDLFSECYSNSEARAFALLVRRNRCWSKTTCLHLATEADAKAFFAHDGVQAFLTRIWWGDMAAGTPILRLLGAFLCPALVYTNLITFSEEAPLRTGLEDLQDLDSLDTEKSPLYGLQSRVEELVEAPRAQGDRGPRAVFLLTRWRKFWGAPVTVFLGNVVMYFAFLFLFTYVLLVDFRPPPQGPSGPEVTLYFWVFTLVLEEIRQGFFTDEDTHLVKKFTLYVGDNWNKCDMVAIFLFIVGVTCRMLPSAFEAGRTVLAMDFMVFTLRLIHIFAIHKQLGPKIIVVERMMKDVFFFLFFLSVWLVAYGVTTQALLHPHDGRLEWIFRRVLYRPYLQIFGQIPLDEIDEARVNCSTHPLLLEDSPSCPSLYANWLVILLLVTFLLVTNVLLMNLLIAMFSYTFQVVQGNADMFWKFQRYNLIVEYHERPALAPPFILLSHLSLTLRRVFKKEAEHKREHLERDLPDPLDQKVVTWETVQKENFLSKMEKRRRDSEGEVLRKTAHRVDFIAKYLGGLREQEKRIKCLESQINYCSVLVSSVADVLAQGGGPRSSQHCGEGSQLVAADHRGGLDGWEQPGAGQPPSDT
Description: (§1) Cells grown on glass coverslips were transferred to the recording chamber and kept in a standard modified Ringer's solution of the following composition (in mM): NaCl 140, KCl 2.8, CaC12 1, MgC12 2, glucose 10, Hepes.NaOH 10, pH 7.2, with osmolarity typically ranging from 298-308 mOsm. Intracellular pipette-filling solutions contained (in MM): K-glutamate 120, NaCl 8, MgC12 1, K-BAPTA 10, HEPES.CsOH, pH 7.2 adjusted with KOH. In order to adjust free [Ca^2+]i, to the desired concentration appropriate amounts of CaC12 were added as calculated with WebMaxC v2.1 (available through Stanford University). In the case of fura-2 measurements intracellular K-BAPTA was replaced by 200 μM fura-2. Fura-2 is a calcium indicator (Handbook of Fluorescent Probes and Research Chemicals, 9th ed. Molecular Probes). […]
(§2) The cytosolic calcium concentration was monitored at a rate of 5 Hz with a photomultiplier-based system using a monochromatic light source tuned to excite fura-2 fluorescence at 360 and 390 nm for 20 ms each (TILL Photonics, Munich, Germany). Emission was detected at 450-550 run with a photomultiplier, whose analog signals were sampled and processed by X-Chart software (HEKA, Lambrecht, Germany). Fluorescence ratios were translated into free intracellular calcium concentration based on calibration parameters derived from patch-clamp experiments with calibrated calcium concentrations. […]

TRPM5 [2] = molecular target: T1, TRPM5; assay: Whole-cell patch-clamp of TRPM5 currents in HEK-293 cells stably expressing TRPM5, [Ca2+]i buffered in pipette; assay type: cell-based; conditions: for Hill coefficient, inhibition of TRPM5: fit to inhibitory phase
Description: Cells grown on glass coverslips were transferred to the recording chamber and kept in a standard modified Ringer's solution of the following composition (in mM): NaCl 140, KCl 2.8, CaC12 1, MgC12 2, glucose 10, Hepes.NaOH 10, pH 7.2, with osmolarity typically ranging from 298-308 mOsm. Intracellular pipette-filling solutions contained (in MM): K-glutamate 120, NaCl 8, MgC12 1, K-BAPTA 10, HEPES.CsOH, pH 7.2 adjusted with KOH. In order to adjust free [Ca^2+]i, to the desired concentration appropriate amounts of CaC12 were added as calculated with WebMaxC v2.1 (available through Stanford University). In the case of fura-2 measurements intracellular K-BAPTA was replaced by 200 μM fura-2. Fura-2 is a calcium indicator (Handbook of Fluorescent Probes and Research Chemicals, 9th ed. Molecular Probes). Solution changes were performed by pressure ejection from a wide-tipped pipette. Thrombin (NaCl-based buffer) was purchased from Sigma.
Cells expressing TRPM5 were prepared as in Example 1. The cells were perfused with an internal solution in which the free Ca^2+ concentration was buffered to 500 nM with an appropriate mixture of BAPTA and CaC12. […] The activation kinetics of TRPM5 currents under these experimental conditions is characterized by a half-time to peak of −3 s, with the peak current itself at −10 s. The current inactivates similarly rapidly to basal levels with a half-time of —13 s.
(§3) Patch-clamp experiments were performed in the tight-seal whole-cell configuration at 21-25° C. High-resolution current recordings were acquired by a computer-based patch-clamp amplifier system (EPC-9, HEKA, Lambrecht, Germany). Patch pipettes had resistances between 2-4 MS2 after filling with the standard intracellular solution. Immediately following establishment of the whole-cell configuration, voltage ramps of 50 ms duration spanning the voltage range of −100 to +100 mV were delivered from a holding potential of 0 mV at a rate of 0.5 Hz over a period of 300 to 600 seconds. All voltages were corrected for a liquid junction potential of 10 mV between external and internal solutions when using glutamate as intracellular anion. Currents were filtered at 2.9 kHz and digitized at […] intervals. Capacitive currents and series resistance were determined and corrected before each voltage ramp using the automatic capacitance compensation of the EPC-9. The low-resolution temporal development of membrane currents was assessed by extracting the current amplitude at −80 and +80 mV from individual ramp current records. Where applicable, statistical errors of averaged data are given as means±S.E.M. with n determinations and statistical significance was assessed by Student's t-test. For single channel measurements inside-out patches were pulled into a modified standard external solution that contained no Ca^2+ and had 1 mM Na-EDTA. To record single channels a ramp protocol of 4.5 s from −100 mV to +100 mV and digitized at […] was given with no wait time in between ramps. Ramps that had no channel activity during Ca^2+ application were used for leak correction and subtracted form all ramps acquired. Data collection was at 2.9 kHz filter setting and digitally filtered at 50 Hz for display purposes.

TRPM4 = TRPM4 (Homo sapiens, UniProt Q8TD43); assay: Dose-dependence of TRPM4 currents evoked by intracellular [Ca2+]i; assay type: cell-based
[3] = tested on: endogenous TRPM5-like currents in INS-1 cells; assay: Whole-cell currents in INS-1 beta cells perfused with defined [Ca2+]i; assay type: cell-based, rat
Method: as §3
TRPM5 is found in another beta cell line, INS-1 (FIG. 5B). The INS-1 line was used to assess the electrophysiological features of TRPM5 in a native cellular context. Since the pancreatic beta-cell line INS-1 expressed TRPM5, the native TRPM5 currents in these cells was studied using the same experimental protocols that activated TRPM5 in the heterologous HEK-293 expression system (Examples 1-3). FIG. 5C illustrates that perfusing INS-1 cells with an intracellular solution that contained elevated levels of Ca^2+ (800 nM) induced a transient current, whose current-voltage relationship (FIG. 5D) was outwardly rectifying and closely resembled the current-voltage characteristics obtained for TRPM5 in the transfected HEK-293 cells. […]

TRPM5 single channels = molecular target: T2, TRPM5 single channels (Homo sapiens, UniProt Q9NZQ8); assay: Single-channel recordings in inside-out patches from HEK-293 cells stably expressing TRPM5; assay type: biochemical; conditions: cytosolic side exposed to 300 nM Ca2+, n=5
T2 construct: Human TRPM5 cDNA containing the complete ORF of the long splice version; expressed in transfected cells
T2 sequence (Q9NZQ8 1-1165): T1 sequence (Q9NZQ8 1-1165)
Description: FIG. 4A depicts studies in which the inside-out patches were pulled from HEK-293 cells stably expressing TRPM5 channels. To record single channels a ramp protocol of 4.5 s from −100 mV to +100 mV was given with no wait time in between ramps. Ramps that had no channel activity during Ca^2+ application ere used for leak correction. Data were acquired at 2.9 kHz filter setting and digitally filtered at 50 Hz for display purposes. […] The last panel is an example 1 s after stop of application and removal of Ca^2+. This patch had at least 7 channels. […] Records are representative of all 5 patches recorded this way. […]
Patch-clamp experiments were performed in the tight-seal whole-cell configuration at 21-25° C. […] Capacitive currents and series resistance were determined and corrected before each voltage ramp using the automatic capacitance compensation of the EPC-9. The low-resolution temporal development of membrane currents was assessed by extracting the current amplitude at −80 and +80 mV from individual ramp current records. Where applicable, statistical errors of averaged data are given as means±S.E.M. with n determinations and statistical significance was assessed by Student's t-test. […]
The single-channel properties of TRPM5 were analyzed in cell-free excised membrane patches in the inside-out configuration of the patch-clamp technique. […]

HEK-293 cells = assay: fura-2 measurement of [Ca2+]i in TRPM5-expressing HEK-293 cells; assay type: cell-based, human; conditions: thrombin 20 U/ml, n=5
Description: as §1, §2

Sequence of TRPM4 (Q8TD43 whole entry, the tested form may be a part): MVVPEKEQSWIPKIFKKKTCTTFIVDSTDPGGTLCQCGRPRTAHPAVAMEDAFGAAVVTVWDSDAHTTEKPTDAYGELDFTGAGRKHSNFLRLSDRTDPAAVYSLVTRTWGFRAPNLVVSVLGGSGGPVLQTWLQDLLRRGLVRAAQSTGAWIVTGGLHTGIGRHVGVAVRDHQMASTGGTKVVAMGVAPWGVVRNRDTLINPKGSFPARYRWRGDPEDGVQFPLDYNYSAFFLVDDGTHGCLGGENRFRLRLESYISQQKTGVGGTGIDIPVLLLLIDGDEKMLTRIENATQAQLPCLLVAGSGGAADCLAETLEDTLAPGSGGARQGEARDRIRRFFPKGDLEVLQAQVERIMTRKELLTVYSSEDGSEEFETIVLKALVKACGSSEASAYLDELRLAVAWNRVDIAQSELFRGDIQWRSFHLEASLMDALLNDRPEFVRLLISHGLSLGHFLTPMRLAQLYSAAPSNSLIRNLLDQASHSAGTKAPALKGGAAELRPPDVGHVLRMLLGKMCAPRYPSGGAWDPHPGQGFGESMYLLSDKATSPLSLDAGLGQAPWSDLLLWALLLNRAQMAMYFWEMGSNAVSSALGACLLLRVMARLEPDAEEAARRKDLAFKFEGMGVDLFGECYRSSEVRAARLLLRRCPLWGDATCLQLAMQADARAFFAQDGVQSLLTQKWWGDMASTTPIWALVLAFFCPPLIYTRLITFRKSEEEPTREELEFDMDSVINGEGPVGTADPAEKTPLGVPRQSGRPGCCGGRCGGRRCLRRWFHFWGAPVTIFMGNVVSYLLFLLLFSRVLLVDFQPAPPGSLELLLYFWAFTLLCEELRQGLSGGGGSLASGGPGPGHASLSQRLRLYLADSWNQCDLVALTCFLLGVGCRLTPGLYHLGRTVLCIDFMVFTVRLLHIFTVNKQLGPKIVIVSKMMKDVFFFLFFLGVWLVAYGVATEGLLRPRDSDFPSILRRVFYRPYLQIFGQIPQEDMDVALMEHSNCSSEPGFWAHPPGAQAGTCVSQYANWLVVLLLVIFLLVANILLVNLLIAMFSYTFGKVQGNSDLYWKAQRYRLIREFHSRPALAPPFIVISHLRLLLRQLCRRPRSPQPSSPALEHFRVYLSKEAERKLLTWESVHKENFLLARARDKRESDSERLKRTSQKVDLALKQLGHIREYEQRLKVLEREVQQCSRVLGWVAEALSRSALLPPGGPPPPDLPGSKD

effect on TRPM5 activation by thrombin (TRPM5 [1]; 10 mM BAPTA in the pipette solution, n=6, data not shown): consistently suppressed TRPM5 activation
Compound: O=C([O-])CN(CC(=O)[O-])c1ccccc1OCCOc1ccccc1N(CC(=O)[O-])CC(=O)[O-].[K+].[K+].[K+].[K+] [BAPTA]

average peak amplitude of TRPM5 inward currents (TRPM5 [2]; at −80 mV, [Ca2+]i of 1 μM, n=5): −440 pA
Hill coefficient, inhibition of TRPM5 (TRPM5 [2]): −6
Hill coefficient, inhibition of TRPM5 (TRPM5 [2]; listed as [Ca2+]i): 6
Hill coefficient, activation of TRPM5 (TRPM5 [2]; fit to rising phase): 4
EC50 (TRPM5 [2]; whole-cell, HEK-293 expressing TRPM5, n=5-20, read-out: EC50 for activation of TRPM5 currents (rising phase)): 850 nM
IC50 (TRPM5 [2]; whole-cell, HEK-293 expressing TRPM5, n=5-20, read-out: IC50 of the inhibitory phase of TRPM5 currents): 1100 nM
Compound: [Ca+2] [[Ca^2+]i]
EC50 (TRPM4; data re-calculated by WebmaxC): 885 nM
Hill coefficient, TRPM4 currents (TRPM4; data re-calculated by WebmaxC): 3.6
inhibition of TRPM4 activity at high [Ca2+]i (TRPM4; levels up to 1.3 μM, Ref. 9 and data not shown): without signs of inhibition
activation of endogenous TRPM5-like currents ([3]; 100 nM [Ca2+]i, n=3): neither 100 nM (n=3) nor 300 nM (n=3) activated any currents
activation of endogenous TRPM5-like currents ([3]; 300 nM [Ca2+]i, n=3): neither 100 nM (n=3) nor 300 nM (n=3) activated any currents
activation of endogenous TRPM5-like currents ([3]; 500 nM [Ca2+]i, n=3): a distinctive, transient TRPM5-like current was activated
activation of endogenous TRPM5-like currents ([3]; 800 nM [Ca2+]i, n=8): a distinctive, transient TRPM5-like current was activated
TRPM5 single-channel activity in inside-out patch (TRPM5 single channels): activity of multiple channels was observed

Compound: Thrombin
TRPM5 currents at +80 and −80 mV on thrombin stimulation (TRPM5 [1]; thrombin 20 U/ml, n=5): transient increase in inward and outward currents
[Ca2+]i signal on thrombin stimulation (HEK-293 cells): large Ca^2+-release transient

Source: US7723075B2, “Methods of screening for TRPM5 modulators” (The Queens's Medical Center, priority 2003, dated 2010)
